Literature values, collected in patent US7473685B2, “Process for preparation of chemically stable, dry-flow, low compact, dust free, soluble granules of phosphoroamidothioates” (United Phosphorus, Ltd., priority 2001, dated 2009).

Tested on: aphids, leaf-miners, lepidopterous, larvae, sawflies and thrips
Settings: systemic and contact insecticide of moderate persistence

## COP(=O)(NC(C)=O)SC (stereo not shown) [Acephate]
  residual activity lasting: 10 to 15 days
